Experimental data reported in ChEMBL document CHEMBL5223081 (J Med Chem, 2021).

Assays:
Adenosine receptor A3 = target: T1, Adenosine receptor A3 (Homo sapiens, UniProt P0DMS8); test: Binding affinity to human A3 adenosine receptor assessed as inhibition constant
T1 sequence (P0DMS8 whole entry): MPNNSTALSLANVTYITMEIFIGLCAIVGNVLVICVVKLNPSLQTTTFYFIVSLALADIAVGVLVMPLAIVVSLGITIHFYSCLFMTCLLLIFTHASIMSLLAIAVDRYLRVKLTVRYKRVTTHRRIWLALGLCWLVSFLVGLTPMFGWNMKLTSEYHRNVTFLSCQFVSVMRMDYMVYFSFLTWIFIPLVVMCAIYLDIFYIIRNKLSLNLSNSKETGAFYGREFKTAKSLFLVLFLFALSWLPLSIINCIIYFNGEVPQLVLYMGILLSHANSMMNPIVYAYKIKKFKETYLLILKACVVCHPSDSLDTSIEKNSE

[1] = Inhibition of human PDE5 derived from platelets by scintillation counter analysis
[2] = Aqueous solubility of compound; format: physicochemical
[3] = Inhibition of PDE2 derived from bovine heart by scintillation counter analysis; design: species or system Bos taurus
Homo sapiens [4] = species on record: Homo sapiens; test: Selectivity index, ratio of Ki for human A2A receptor to Ki for human A3 receptor assessed as fold change
Homo sapiens [5] = species on record: Homo sapiens; test: Selectivity index, ratio of Ki for human A1 receptor to Ki for human A3 receptor assessed as fold change
Homo sapiens [6] = species on record: Homo sapiens; test: Selectivity index, ratio of Ki for human A2 receptor to Ki for A1 receptor assessed as fold change
Homo sapiens [7] = species on record: Homo sapiens; test: Selectivity index, ratio of antagonist activity at A1 receptor to antagonist activity at A2 receptor
[8] = target: T2, Palmitoleoyl-protein carboxylesterase NOTUM (Homo sapiens, UniProt Q6P988); test: Inhibition of notum (unknown origin)
T2 sequence (Q6P988 whole entry): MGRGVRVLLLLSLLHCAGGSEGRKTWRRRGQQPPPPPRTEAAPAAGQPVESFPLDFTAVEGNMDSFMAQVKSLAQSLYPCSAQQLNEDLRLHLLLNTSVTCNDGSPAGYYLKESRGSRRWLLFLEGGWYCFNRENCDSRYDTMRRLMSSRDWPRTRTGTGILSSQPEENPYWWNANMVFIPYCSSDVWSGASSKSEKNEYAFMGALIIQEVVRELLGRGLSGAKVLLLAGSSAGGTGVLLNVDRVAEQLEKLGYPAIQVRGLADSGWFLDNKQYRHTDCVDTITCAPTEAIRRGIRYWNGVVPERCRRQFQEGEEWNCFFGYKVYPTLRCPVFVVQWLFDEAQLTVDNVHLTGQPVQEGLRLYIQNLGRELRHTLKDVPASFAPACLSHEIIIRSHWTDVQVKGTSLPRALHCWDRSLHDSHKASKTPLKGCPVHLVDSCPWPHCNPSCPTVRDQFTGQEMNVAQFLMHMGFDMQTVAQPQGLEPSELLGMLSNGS

[9] = Inhibition of Glycogen phosphorylase (unknown origin); design: species or system Homo sapiens
[10] = Inhibition of phosphodiesterase (unknown origin); design: species or system Homo sapiens
[11] = Inhibition of ryanodine receptor (unknown origin); design: species or system Homo sapiens
[12] = Inhibition of bile export protein (unknown origin); design: species or system Homo sapiens
[13] = target: GABA-A receptor; anion channel; test: Inhibition of GABAA receptors (unknown origin); format: protein-complex assay, Homo sapiens
Guanine deaminase = target: T3, Guanine deaminase (Homo sapiens, UniProt Q9Y2T3); test: Inhibition of guanine deaminase (unknown origin)
T3 sequence (Q9Y2T3 whole entry): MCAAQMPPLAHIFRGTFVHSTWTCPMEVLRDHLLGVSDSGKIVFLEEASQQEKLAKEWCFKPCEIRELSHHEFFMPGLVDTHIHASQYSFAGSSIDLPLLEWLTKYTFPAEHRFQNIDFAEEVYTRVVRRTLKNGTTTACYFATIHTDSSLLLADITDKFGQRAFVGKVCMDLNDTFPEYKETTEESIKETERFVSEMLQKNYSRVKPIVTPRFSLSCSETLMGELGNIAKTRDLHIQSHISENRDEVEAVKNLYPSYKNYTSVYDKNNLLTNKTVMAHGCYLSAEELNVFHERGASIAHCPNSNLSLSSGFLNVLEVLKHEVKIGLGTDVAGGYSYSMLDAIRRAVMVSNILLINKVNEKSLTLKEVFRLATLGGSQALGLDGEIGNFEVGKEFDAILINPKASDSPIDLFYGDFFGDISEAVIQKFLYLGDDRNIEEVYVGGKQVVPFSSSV

[14] = Inhibition of PI3-kinase (unknown origin); design: species or system Homo sapiens
[15] = target: Nuclear receptor subfamily 2 group E member 1 (Homo sapiens, UniProt Q9Y466); test: Inhibition of tlx (unknown origin)
Nuclear receptor subfamily 2 group E member 1, sequence (Q9Y466 whole entry): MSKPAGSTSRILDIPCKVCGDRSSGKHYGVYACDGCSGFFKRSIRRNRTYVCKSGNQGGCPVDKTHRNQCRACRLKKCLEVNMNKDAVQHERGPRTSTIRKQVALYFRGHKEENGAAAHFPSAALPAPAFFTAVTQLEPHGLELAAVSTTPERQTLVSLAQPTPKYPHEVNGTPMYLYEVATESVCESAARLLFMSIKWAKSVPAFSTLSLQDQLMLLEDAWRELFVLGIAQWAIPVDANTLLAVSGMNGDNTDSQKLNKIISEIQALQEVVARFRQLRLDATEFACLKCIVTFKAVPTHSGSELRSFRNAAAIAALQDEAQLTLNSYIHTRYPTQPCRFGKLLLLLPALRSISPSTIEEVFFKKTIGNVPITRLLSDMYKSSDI

[16] = Inhibition of human glycogen phosphorylase
[17] = Inhibition of human glycogen phosphorylase in presence of 0.2 mM of AMP

CC[C@@H]1CN2C(=O)N(C)c3nc(-c4cc(Cl)cc(Cl)c4Cl)[nH]c3C2=N1
Ki (Adenosine receptor A3): 0.000433 µM

CCCc1nn(C)c2c(=O)[nH]c(-c3cc(S(=O)(=O)N4CCN(C)CC4)ccc3OCC)nc12
IC50 [1]: 0.01 µM

CCCn1c(=O)c2c(nc(/C=C/c3ccc(OC)c(OC)c3)n2C)n(CCC)c1=O
solubility [2]: < 10 µg/mL

COc1ccc(Cc2nc(O)c3c(C)nc([C@@H](CCCc4ccccc4)[C@@H](C)O)n3n2)cc1OC
IC50 [3]: 0.0047 µM

Cn1c(=O)c2[nH]c(-c3ccc(S(=O)(=O)O)cc3)nc2n(C)c1=O
solubility [2]: > 20 µM

CCCCn1c(=O)c2c(ncn2[C@@H]2O[C@H](C(=O)NC)[C@@H](O)[C@H]2O)n(CCCC)c1=O
Ratio Ki (Homo sapiens [4]): > 400 | Ratio Ki (Homo sapiens [5]): 160

CCCn1c(=O)c2nc(-c3ccc(OCC(N)=O)cc3O)[nH]c2n(CCC)c1=O
Ratio Ki (Homo sapiens [6]): 190

CCCn1c(=O)c2nc(C3CC4CC3C3OC43)[nH]c2n(CCC)c1=O (stereo unspecified)
Ratio Ki (Homo sapiens [6]): 400

CCCn1cnc2c1c(=O)n(C)c(=O)n2C
Ratio (Homo sapiens [7]): 10

Cn1c(=O)c2c(ncn2C)n(C)c1=O [CAFFEINE]
IC50 [8]: 100 µM | pKi [9]: 4 | pIC50 [10]: < 4 | pEC50 [11]: < 4 | pIC50 [12]: 4 | pKi [13]: < 4 | Ki (Guanine deaminase): 10 µM | pIC50 [14]: <= 4.1 | IC50 [15]: 7.94 µM | IC50 [16]: 92 µM | IC50 [17]: 360 µM
